Laboratory results: the supplement of paper PMC9938120

Experiments:
Assay in all cases: drug sensitivity score (DSS3, normalised partial AUC of % inhibition dose-response) (DSS (score)); higher = more sensitive (stronger inhibition of viability); extreme values may be limits of the assay
FMOC02_2 = patient-derived low-grade serous ovarian cancer cells; conditions: 72 h; library: FO5A; assay format: 2D, 384-well, CellTiter-Glo
Summary of the method: (§1)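 Cells were dispensed onto 384-well flat clear-bottom plates already holding compounds at five concentrations over a 10,000-fold range, using patient-derived ovarian cancer cells at passage under 10. Incubation lasted 72 h at 37 °C in 5% CO2, after which CellTiter-Glo viability data were processed in Breeze. Higher drug sensitivity scores, each a partial area under the percent-inhibition dose-response curve divided by the log of the upper asymptote, mean more sensitive cells.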

FMOC02_3 = patient-derived low-grade serous ovarian cancer cells; conditions: 72 h; library: FO5A; assay format: 2D, 384-well, CellTiter-Glo
Summary of the method: as §1

FMOC03 = patient-derived mucinous ovarian cancer cells; conditions: 72 h; library: FO5A; assay format: 2D, 384-well, CellTiter-Glo
Summary of the method: as §1

FMOC06 = patient-derived mucinous ovarian cancer cells; conditions: 72 h; library: FO5A; assay format: 2D, 384-well, CellTiter-Glo
Summary of the method: as §1

FMOC09 = patient-derived high-grade serous ovarian cancer cells; conditions: 72 h; library: FO5A; assay format: 2D, 384-well, CellTiter-Glo
Summary of the method: as §1

FMOC14 = patient-derived high-grade serous ovarian cancer cells; conditions: 72 h; library: FO5A; assay format: 2D, 384-well, CellTiter-Glo
Summary of the method: as §1

FMOC22 = patient-derived mucinous ovarian cancer cells; conditions: 72 h; library: FO5A; assay format: 2D, 384-well, CellTiter-Glo
Summary of the method: as §1

FMOC24 = patient-derived high-grade serous ovarian cancer cells; conditions: 72 h; library: FO5A; assay format: 2D, 384-well, CellTiter-Glo
Summary of the method: as §1

FMOC25_1 = patient-derived low-grade serous ovarian cancer cells; conditions: 72 h; library: FO4B; assay format: 2D, 384-well, CellTiter-Glo
Summary of the method: as §1

FMOC25_2 = patient-derived low-grade serous ovarian cancer cells; conditions: 72 h; library: FO5A; assay format: 2D, 384-well, CellTiter-Glo
Summary of the method: as §1

Structure (SMILES) | drug sensitivity score (FMOC02_2) | drug sensitivity score (FMOC02_3) | drug sensitivity score (FMOC03) | drug sensitivity score (FMOC06) | drug sensitivity score (FMOC09) | drug sensitivity score (FMOC14) | drug sensitivity score (FMOC22) | drug sensitivity score (FMOC24) | drug sensitivity score (FMOC25_1) | drug sensitivity score (FMOC25_2)
CC(C)C[C@@H](C(=O)N[C@H](C(=O)OC1CCCC1)c1ccccc1)[C@H](O)C(=O)NO [Tosedostat] | 7.2 | 11 | 7.6 | 11.9 | 6.6 | 5.3 | 1.8 | 19.7 | 6.2 | 4.7
NC(=O)N1CCC(CC(=O)N2CCC([C@H]3c4ncc(Br)cc4CCc4cc(Cl)cc(Br)c43)CC2)CC1 [Lonafarnib] | 6.6 | 0 | 9.8 | 12.1 | 7 | 10.3 | 15.1 | 7.5 | 2.7 | 9.8
O=C(Nc1ccncc1)C(=O)c1cn(Cc2ccc(Cl)cc2)c2ccccc12 [Indibulin] | 10.9 | 9.6 | 4.3 | 1.3 | 4.7 | 0 | 3.4 | 6 | 5.5 | 9.2
CS(=O)(=O)N1CCN(Cc2cc3nc(-c4cccc5[nH]ncc45)nc(N4CCOCC4)c3s2)CC1 [Pictilisib] | 16.8 | 16.1 | 9.4 | 10.6 | 11.9 | 9.2 | 5.1 | 5.35 | 12.9 | 14.3
CN(C)C1CCN(C(=O)c2ccc(NC(=O)Nc3ccc(-c4nc(N5CCOCC5)nc(N5CCOCC5)n4)cc3)cc2)CC1 [Gedatolisib] | 8.2 | 13.3 | 8.2 | 12.4 | 11.3 | 10.2 | 10.7 | 9.05 | 16.3 | 19.9
COc1cc(C(=O)O)ccc1NC(=O)[C@@H]1N[C@@H](CC(C)(C)C)[C@](C#N)(c2ccc(Cl)cc2F)[C@H]1c1cccc(Cl)c1F [Idasanutlin] | 18.5 | 22.7 | 2.6 | 5.3 | 2 | 2.5 | 3.6 | 1.9 | 10.5 | 16.6
CO[C@H]1C[C@@H]2CC[C@@H](C)[C@@](O)(O2)C(=O)C(=O)N2CCCC[C@H]2C(=O)O[C@H]([C@H](C)C[C@@H]2CC[C@@H](OCCO)[C@H](OC)C2)CC(=O)[C@H](C)/C=C(\C)[C@@H](O)[C@@H](OC)C(=O)[C@H](C)C[C@H](C)/C=C/C=C/C=C/1C [Everolimus] | 10 | 10.2 | 2.8 | 5.8 | 3.9 | 1.7 | 6.7 | 7.5 | 9.2 | 6.7
O=C(Nc1cccc(Nc2ncc(Br)c(NCCc3cnc[nH]3)n2)c1)N1CCCC1 [BX-912] | 5 | 7.6 | 2.4 | 4.4 | 2 | 0.5 | 2.4 | 4.65 | 6.2 | 7.6
CCOc1cc2ncc(C#N)c(Nc3ccc(OCc4ccccn4)c(Cl)c3)c2cc1NC(=O)/C=C/CN(C)C [Neratinib] | 14.1 | 18.3 | 12.3 | 2.2 | 9.8 | 2.5 | 2.3 | 1.1 | 8.7 | 16.5
CC[C@H](CC#N)OC(=O)N[C@@H](C)c1cccc(NC(=O)Nc2ccc(-c3cnco3)c(OC)c2)c1 [AVN944] | 9.8 | 12.6 | 13.4 | 13.4 | 11.2 | 11 | 14.2 | 6.45 | 9.7 | 10.3
CC(C)(C)c1cnc(CSc2cnc(NC(=O)C3CCNCC3)s2)o1 [SNS-032] | 19.4 | 25.5 | 17.4 | 23.2 | 11.6 | 17.9 | 12 | 17.9 | 20.8 | 25.4
Nc1nc(Cl)nc2c1ncn2[C@@H]1O[C@H](CO)[C@@H](O)[C@@H]1F [Clofarabine] | 8.9 | 13.7 | 4.1 | 5.3 | 7.8 | 0 | 10.5 | 4.9 | 8.5 | 16.5
CCNC(=O)c1noc(-c2cc(C(C)C)c(O)cc2O)c1-c1ccc(CN2CCOCC2)cc1 [Luminespib] | 19.8 | 23 | 10.8 | 3.2 | 16.9 | 13 | 13.2 | 9.4 | 10.9 | 23.6
CCn1cc(-c2ccnc3[nH]c(-c4cccc(CN(C)C)c4)cc23)c(-c2ccc(NC(=O)N(C)C)cc2)n1 | 0 | 2.6 | 0 | 0 | 0 | 0 | 0.1 | 0.55 | 0 | 2.2
Cc1cc(Nc2cc(CN3CCOCC3)c3nc(C)c(Cc4ccc(Cl)cc4F)n3n2)n[nH]1 [Gandotinib] | 16.3 | 10.1 | 4.7 | 8.9 | 5.1 | 6.1 | 1.8 | 7.6 | 3.7 | 18.8
COc1ccc(C[C@H](NC(=O)[C@H](C)NC(=O)CN2CCOCC2)C(=O)N[C@@H](Cc2ccccc2)C(=O)C2(C)CO2)cc1 (stereo in doubt) [ONX-0914] | 12.5 | 19.3 | 16.5 | 16.9 | 12.8 | 14.1 | 14.9 | 20.9 | 16.4 | 18.8
